Read-outs that look alike come from different tables or passages of the source. Bounds are passed on as bounds.

Data set [1] in a line: Water oxidation with sodium periodate, Clark electrode. The source says: Chem. Soc., 2010, vol. 132, pp. 16017-16029:
For data set [2] the following is noted: for TOF / TON: 5 μM catalyst, 20 mM NaIO4 in 180 mM NaOAc; for Enhancement as pH change from 3 to 6: ratio pH 6 to pH 3. How it is done:
Catalysts of the formula Cp*IrCl(n,n′-DHBP)]Cl according to the present invention were used for water oxidation at a variety of different pH levels. These catalysts were the same catalysts as the first three catalysts used in Example 6.5 μM catalyst with 20 mM NaIO4 in 180 mM NaOAc were employed.

The conditions of data set [3]: 5 μM catalyst; for 10 min: TOF / 10 min: TON / TOF: 20 mM NaIO4, pH 5.6, 25° C.; for TOF / Initial Rate: first 30 sec; for Initial Rate: 20 mM NaIO4, pH 5.6 NaOAc buffer, 25° C.
Procedure: Catalysts were used for water oxidation with NaIO4 as an oxidant.
20 mM of NaIO4 was added. The pH was 5.6 and NaOAc was used as a buffer. The vessel and catalyst solution were maintained at 25° C.
The conditions of data set [4]: UV-Vis titration, Na2HPO4/HCl buffers pH 2.5-9.2; simultaneous removal of both ligand protons.
Procedure: Approximately 100 mL of 0.1M Na2HPO4 was put into a beaker and stirred and the pH was recorded. 2 mL of 0.0000034M catalyst was put into 10 mL volumetric flasks (final concentration of Ir complex is 6.8 μM). 100 mL of 0.1M Na2HPO4 was titrated with 0.1M HCl until it reached the desired buffer pH (every 0.5 pH unit). At each desired buffer pH, 8 mL of the solution was put into the volumetric flasks. pH's used were as follows: 9.2, 8.0, 7.5, 7.0, 6.5, 6.0, 5.5, 5.0, 4.5, 4.0, 3.5, 3.0, 2.5. […] UV/Vis spectra for each solution were obtained (FIG. 5).
The conditions of data set [5]: 5 μM catalyst. How it is done:
A catalyst according to the present invention [Cp*Ir^III(DHBP)Cl]Cl was used for water oxidation with cerium (IV) ammonium nitrate (CAN) as the oxidant. The reaction progress was monitored by a Clark electrode to measure the increase in dissolved oxygen with time in a sealed vessel. For longer reaction times, the amount of oxygen that builds up in the headspace is significant and was measured by pressure transducers. In the first set of experiments, the concentration of catalyst was 5 μM and CAN=67 mM at pH=6.0. […] A prior art catalyst, catalyst 15(Cat 15 in FIG. 4, “Cat 15+67 mM CAN”) was used as a comparison. The prior art Cat 15 is represented by the formula taken from Blakemore, et al., “Half-sandwich iridium complexes for homogeneous water-oxidation catalysis,” J. Am. Chem. Soc., 2010, vol. 132, pp. 16017-16029:
In a second set of experiments, the concentration of catalyst was 5 μM. Cat5 was used in a buffered aqueous solution at pH 5.6 with 17 mM sodium periodate as the oxidant, as shown in green in FIG. 4.

For data set [6] the following is noted: 17 mM NaIO4 as oxidant, 25° C.
Source text: Rates were most linear from 30 to 240 seconds. […] In this analysis, the slope corresponds to reaction order in Ir catalyst.
The nature of data set [7]: Hydrogenation of acetophenone, comparison of five catalysts. The conditions noted are these: 0.02 mmole catalyst, 85-90° C., 24 hours unless x=18, y=20, z=21 hours. On the procedure:
Five catalysts were used to catalyze hydrogenation of acetophenone. The first four are represented by the following structures:
These catalysts are represented as 1-4 in Table 4. The last catalyst is [(η^6-p-cymene)RuCl2]2. The reaction mixture contained 0.02 mmole catalyst, 10 mmole of NaO2CH or 2 mmole of KOH, 0.667 mmole of 1,3,4-trimethoxybenzene as internal standard, and 10 mL solvent. The reaction was carried out under N2 at 85-90° C. for 24 hours unless otherwise stated (x=18 hours, y=20 hours, z=21 hours). The percentage conversion was determined by ^1H-NMR as an average of two trials.

Data set [8] in a line: Hydrogenation of ketones with NaO2CH in MeOH:water. The conditions noted are these: for % conversion: 1 mole % catalyst, 10:90 MeOH:water, NaO2CH, reflux 16-18 hours. How it is done:
(§1) [drawing 11] was used for hydrogenation of several different organic substrates. For ketones, the reaction was carried out by mixing 1 mole % of catalyst, 10:90 of MeOH:water and NaO2CH, and heated to reflux for 16-18 hours. For imines, the reaction was carried out by mixing 1 mole % of catalyst, THF, NEt3 base (5 molar %) and 75 psi H2(g), with heating to reflux for 48 hours. The catalyst provided a very high percentage conversion for ketones in water.

Data set [9] can be described thus: Hydrogenation of imines with H2 in THF. Particulars: substrate N-benzylidene-methylamine. How it is done: as §1
Data set [10] in a line: Hydrogenation of acetophenone under various conditions. Particulars: 90° C., 16-17 hours. How it is done:
[drawing 12] was used to catalyze hydrogenation of acetophenone under various conditions. For each mole of the substrate, 5 moles of a base is used. The reaction is carried out at 90° C. for 16-17 hours.

Setting [11] is: first 30 seconds of reaction, 5 μM catalyst, 78 mM CAN, 25° C.
Where [12] appears, read: first 10 minutes of reaction, 5 μM catalyst, 78 mM CAN, 25° C.
[13] abbreviates: 5 μM catalyst, pH 5.6 buffered, 17 mM sodium periodate.
Setting [14] is: substrate 2-methoxy-acetophenone.
The mark [15] stands for this setting: substrate 4-methoxy-acetophenone.

Turning to `Cc1c(C)c(C)[c-](C)c1C.[Cl-].[Cl][Ir+2].c1ccc(-c2ccccn2)nc1` [Cat15, reference compound], the “activity in water oxidation (in words)” value in data set [1] (5 μM catalyst, pH 5.6, 17 mM oxidant ("under these conditions")) was “not active”.
As to `Cc1c(C)c(C)[c-](C)c1C.Oc1ccnc(-c2cc(O)ccn2)c1.[Cl-].[Cl-].[Ir+3]` [[Cp*IrCl(4,4′-DHBP)]Cl, [Cp*Ir(4,4′-dhbp)Cl]Cl], in [2] (pH = 3 for 10 minutes), the TOF turned out to be 0 min⁻¹ and the TON came out at 0. Also, in data set [2] (pH = 6 for 10 minutes), the TOF is 14 min⁻¹ and the TON was 124. Also, the “Enhancement as pH change from 3 to 6” value in [2] was over 124X. Moreover, under setting [11], the “Initial Rate” value was 81.25 ± 12 μmole O2 L^−1 min^−1 and the TOF was 16.33 ± 12 min⁻¹. Under setting [12], this compound yielded a TOF of 4.33 min⁻¹ and a TON of 43.34. Moreover, in [3], the “10 min: TOF” value worked out at 11.87 min⁻¹, the “10 min: TON” value was 118.70, the TOF was 21.35 ± 3 min⁻¹ and the “Initial Rate” value is 106.25 ± 3 μM O2 min^−1. For the same compound, in data set [4], the pKa (in general, the negative logarithm of the acid dissociation constant) is recorded as 4.4±0.2.
On to `Cc1c(C)c(C)[c-](C)c1C.Oc1cccc(-c2cccc(O)n2)n1.[Cl-].[Cl][Ir+2]` [[Cp*IrCl(6,6′-DHBP)]Cl, [Cp*Ir(6,6′-DHBP)Cl]Cl], for which the TOF in [2] (pH = 3 for 10 minutes) was 0.14 min⁻¹; the TOF in data set [2] (pH = 6 for 10 minutes) was found to be 14 min⁻¹; the TOF in data set [5] (CAN=67 mM, pH=6.0) worked out at 6.4 min⁻¹; the TOF in data set [1] (setting [13]) amounted to 6.3 min⁻¹; the TOF in data set [1] (at higher NaIO4 concentrations) turned out to be 18 min⁻¹; the TOF under setting [11] was 15.07 ± 15 min⁻¹. The compound further gave a TOF under setting [12] of 3.89 min⁻¹ and a TOF in data set [3] of 10.04 ± 3 min⁻¹. The TON in [2] (pH = 3 for 10 minutes) is given as 1.3; the TON in [2] (pH = 6 for 10 minutes) came out at 120; the TON in [5] (in 5 min, CAN=67 mM, pH=6.0) worked out at 14; the TON in data set [1] (at higher NaIO4 concentrations, in 5 mM (so in the source)) worked out at 84; the TON in data set [1] (in 5 min, 5 μM catalyst, pH 5.6, 17 mM sodium periodate) is 36; the TON under setting [12] came to 38.93. For the same compound, in data set [2], the “Enhancement as pH change from 3 to 6” value turned out to be 92X. In addition, the “water oxidation (in words)” value in data set [5] (CAN=17 mM) is “does not oxidize water appreciably”. Moreover, the “initial rate of oxygen evolution” value in data set [5] (CAN=67 mM, pH=6.0) stood at 31 µM/min. Besides, the “initial rate of oxygen generation” value in [1] (setting [13]) came out at 31 µM/min. The “Initial Rate” value under setting [11] came out at 75.00 ± 15 μmole O2 L^−1 min^−1 and the “Initial Rate” value in data set [3] came out at 50 ± 3 μM O2 min^−1. In addition, the “10 min: TOF” value in [3] stood at 9.99 min⁻¹. Further, the “10 min: TON” value in data set [3] is reported as 99.86. Also, the pKa in data set [4] was 4.6±0.1. Moreover, the “slope of ln(rate) vs. ln([catalyst]) (reaction order in Ir catalyst)” value in data set [6] is listed as 0.94.
For the compound `Cc1c(C)c(C)[c-](C)c1C.[Cl-].[Cl-].[Ir+3].c1ccc(-c2ccccn2)nc1` [[Cp*IrCl(bipy)]Cl, reference compound], under “as stated in text of Example 5”, the Initial Rate was found to be 72±3 mole O2 L^−1 s^−1 and the “turnover frequency (TOF)” value was 14.4±0.7. Besides, in data set [3], the “10 min: TOF” value is 0.064 min⁻¹, the “10 min: TON” value was found to be 0.64, the TOF is 0 ± 3 min⁻¹ and the “Initial Rate” value stood at 0 ± 3 μM O2 min^−1.
Turning to `Cc1ccc(C(C)C)cc1.Cc1ccc(C(C)C)cc1.[Cl][Ru][Cl].[Cl][Ru][Cl]` [[p-cymRuCl2]2, [(η^6-p-cymene)RuCl2]2], the “% conversion” value was found to be 100% in [7] (KOH, ^1PrOH); 15% in data set [7] (NaO2CH, 10/90 MeOH/H2O); 13% in [7] (NaO2CH, 50/50 MeOH/H2O); 13% in data set [7] (NaO2CH, H2O).
For the compound `Cc1ccc(C(C)C)cc1.Oc1cccc(-c2cccc(O)n2)n1.[Cl-].[Cl][Ru+]` [drawing 11], the Turnover frequency in [8] (setting [14]) came out at 8.83 h⁻¹; in [8] (substrate 2′-acetonaphtone) it was 13.50 h⁻¹; in data set [8] (substrate 4-bromo-acetophenone), 16.17 h⁻¹; in data set [8] (setting [15]), 10.71 h⁻¹; in data set [8] (substrate acetophenone), 16.17 h⁻¹; in [9] it was 0.63 h⁻¹. Moreover, the Turnover number in [8] (setting [14]) was 53; in data set [8] (substrate 2′-acetonaphtone), 81; in data set [8] (substrate 4-bromo-acetophenone), 97; in data set [8] (setting [15]), 65; in [8] (substrate acetophenone), 97; in [9], 30. The “% conversion” value in data set [8] (setting [14]) is on record as 53%; in data set [8] (substrate 2′-acetonaphtone), 81%; in data set [8] (substrate 4-bromo-acetophenone), 97%; in data set [8] (setting [15]) it was 65%; in [8] (substrate acetophenone) it was 97%; in data set [9] (1 mole % catalyst, THF, NEt3, 75 psi H2, reflux 48 hours), 30%.
In the case of `Cc1ccc(C(C)C)cc1.Oc1cccc(-c2cccc(O)n2)n1.[Cl-].[Cl][Ru+]` [drawing 12], the “% conversion” value in data set [10] (1 mole % catalyst, NaO2CH, 10/90 MeOH/H2O) was 97%; in data set [10] (1 mole % catalyst, NaO2CH, 50/50 MeOH/H2O), 96%; in data set [10] (1 mole % catalyst, NaO2CH, H2O), 31%; in [10] (5 mole % catalyst, NaO2CH, H2O), 89%; in [10] (5 mole % catalyst, NaO2CH/HO2CH, H2O), 89%.

The values are drawn from patent publication US9527066B2, “Dihydroxybipyridine complexes of ruthenium and iridium for water oxidation and hydrogenation” (The Board of Trustees of The University of Alabama, priority 2011, dated 2016).
